Source: ChEMBL document CHEMBL3352520, “CoMFA and CoMSIA analysis of ACE-inhibitory, antimicrobial and bitter-tasting peptides” (Eur J Med Chem, 2014)
Residues, ends and D or L forms follow the SMILES beside them.

biological target: Angiotensin-converting enzyme (Homo sapiens) (UniProt P12821); test: Inhibition of ACE (unknown origin); design: unit not given here
Sequence (P12821 whole entry): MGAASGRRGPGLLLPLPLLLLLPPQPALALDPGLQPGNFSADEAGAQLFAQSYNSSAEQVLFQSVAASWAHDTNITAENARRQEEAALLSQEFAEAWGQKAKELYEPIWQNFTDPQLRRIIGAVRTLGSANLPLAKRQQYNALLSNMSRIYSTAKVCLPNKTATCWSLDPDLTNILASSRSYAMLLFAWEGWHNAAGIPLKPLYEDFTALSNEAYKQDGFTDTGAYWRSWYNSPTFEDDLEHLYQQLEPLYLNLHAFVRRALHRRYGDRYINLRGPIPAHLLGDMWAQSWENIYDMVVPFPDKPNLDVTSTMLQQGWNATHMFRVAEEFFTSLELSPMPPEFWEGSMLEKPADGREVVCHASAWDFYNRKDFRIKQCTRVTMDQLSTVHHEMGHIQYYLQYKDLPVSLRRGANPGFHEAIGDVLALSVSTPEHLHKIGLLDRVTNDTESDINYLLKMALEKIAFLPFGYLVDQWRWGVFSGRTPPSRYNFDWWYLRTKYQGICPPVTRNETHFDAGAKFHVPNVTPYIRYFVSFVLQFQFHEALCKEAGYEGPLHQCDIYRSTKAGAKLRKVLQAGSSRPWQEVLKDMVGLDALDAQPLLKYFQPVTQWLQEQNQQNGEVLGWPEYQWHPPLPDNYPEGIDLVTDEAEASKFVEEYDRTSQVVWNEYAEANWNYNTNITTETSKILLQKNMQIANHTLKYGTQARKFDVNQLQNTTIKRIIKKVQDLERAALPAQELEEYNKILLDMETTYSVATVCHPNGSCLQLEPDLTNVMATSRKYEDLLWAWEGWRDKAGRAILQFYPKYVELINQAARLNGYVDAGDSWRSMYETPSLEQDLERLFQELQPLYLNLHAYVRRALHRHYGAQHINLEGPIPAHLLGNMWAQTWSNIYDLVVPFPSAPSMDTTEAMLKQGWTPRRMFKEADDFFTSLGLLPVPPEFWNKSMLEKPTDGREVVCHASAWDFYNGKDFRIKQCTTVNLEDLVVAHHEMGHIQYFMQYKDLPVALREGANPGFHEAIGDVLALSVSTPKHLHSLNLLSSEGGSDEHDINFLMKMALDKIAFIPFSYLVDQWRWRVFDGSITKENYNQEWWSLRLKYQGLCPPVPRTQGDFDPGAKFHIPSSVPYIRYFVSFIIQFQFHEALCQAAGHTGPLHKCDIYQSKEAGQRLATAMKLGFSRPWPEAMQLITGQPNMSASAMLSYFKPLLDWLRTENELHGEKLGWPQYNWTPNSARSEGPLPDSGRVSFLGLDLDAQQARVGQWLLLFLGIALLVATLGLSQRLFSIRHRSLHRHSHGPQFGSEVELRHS

Row | logIC50 | Molecule
1 | 0.58 | C[C@H](NC(=O)[C@@H](N)Cc1ccccc1)C(=O)N1CCC[C@H]1C(=O)O (H-Phe-Ala-Pro-OH)
2 | 0.57 | H-LHLPLP-OH
3 | 1.97 | NC(N)=NCCC[C@H](N)C(=O)N[C@@H](Cc1ccccc1)C(=O)O
4 | 2.55 | NCCCC[C@H](NC(=O)CN)C(=O)N1CCC[C@H]1C(=O)O (H-Gly-Lys-Pro-OH)
5 | 2.53 | CC(C)[C@H](NC(=O)[C@H](C)N)C(=O)N1CCC[C@H]1C(=O)O (H-Ala-Val-Pro-OH)
6 | 0.95 | H-LHLWLP-OH
7 | -0.13 | CC[C@H](C)[C@H](N)C(=O)N[C@@H](CCCNC(=N)N)C(=O)N1CCC[C@H]1C(=O)O (H-Ile-Arg-Pro-OH)
8 | 0.28 | CC(C)C[C@H](N)C(=O)N[C@@H](CCC(N)=O)C(=O)N1CCC[C@H]1C(=O)O (H-Leu-Gln-Pro-OH)
9 | 2 | N[C@@H](CC(=O)O)C(=O)N[C@@H](Cc1ccc(O)cc1)C(=O)O (H-Asp-Tyr-OH)
10 | 2.8 | H-APVPP-OH
11 | 1.56 | H-VLPYP-OH
12 | 1.42 | CC(C)[C@H](N)C(=O)NCC(=O)N1CCC[C@H]1C(=O)O (H-Val-Gly-Pro-OH)
13 | 1.32 | NC(N)=NCCC[C@H](N)C(=O)N1CCC[C@H]1C(=O)O (H-Arg-Pro-OH)
14 | 2.32 | C[C@@H](O)[C@H](N)C(=O)N[C@@H](CC(N)=O)C(=O)N1CCC[C@H]1C(=O)O (H-Thr-Asn-Pro-OH)
15 | 0.68 | CC(C)C[C@H](NC(=O)[C@@H](N)CC(=O)O)C(=O)N1CCC[C@H]1C(=O)O (H-Asp-Leu-Pro-OH)
16 | 2.62 | CC(C)[C@H](N)C(=O)N1CCC[C@H]1C(=O)O (H-Val-Pro-OH)
17 | 0.67 | CC[C@H](C)[C@H](N)C(=O)N[C@@H](Cc1c[nH]c2ccccc12)C(=O)O
18 | 1 | CC(C)[C@H](N)C(=O)N[C@@H](CO)C(=O)N[C@@H](CO)C(=O)N1CCC[C@H]1C(=O)O (H-VSSP-OH)
19 | 1.81 | H-LAYFYP-OH
20 | 2.53 | H-PQPIP-OH
21 | 1 | CC(C)[C@H](NC(=O)[C@@H](N)Cc1ccccc1)C(=O)N[C@@H](C)C(=O)N1CCC[C@H]1C(=O)O (H-FVAP-OH)
22 | 2.05 | H-DKIHP-OH
23 | 2.24 | CC[C@H](C)[C@H](N)C(=O)N[C@@H](CC(C)C)C(=O)N1CCC[C@H]1C(=O)N1CCC[C@H]1C(=O)O (H-ILPP-OH)
24 | 1.65 | CSCC[C@H](N)C(=O)N[C@@H](Cc1ccccc1)C(=O)O (H-Met-Phe-OH)
25 | 1.49 | H-VLPIP-OH

Row | logIC50 | Molecule
26 | 2.4 | H-GRVMP-OH
27 | 0.2 | CC[C@H](C)[C@H](N)C(=O)N[C@@H](CCC(=O)O)C(=O)N1CCC[C@H]1C(=O)O (H-Ile-Glu-Pro-OH)
28 | 1.28 | H-LHLYLP-OH
29 | 2.46 | C[C@@H](O)[C@H](N)C(=O)N1CCC[C@H]1C(=O)O (H-Thr-Pro-OH)
30 | 2.9 | H-LALPP-OH
31 | 0.28 | CC(C)C[C@H](N)C(=O)N[C@@H](CCC(=O)O)C(=O)N1CCC[C@H]1C(=O)O (H-Leu-Glu-Pro-OH)
32 | 1.08 | C[C@H](N)C(=O)N[C@@H](Cc1c[nH]c2ccccc12)C(=O)O (H-Ala-Trp-OH)
33 | 1.9 | H-AVPYP-OH
34 | 2.04 | H-HQIYP-OH
35 | 0.79 | CC[C@H](C)[C@H](N)C(=O)N[C@@H](Cc1ccc(O)cc1)C(=O)O (H-Ile-Tyr-OH)
36 | 1.51 | NC(=O)C[C@H](N)C(=O)N[C@@H](Cc1ccc(O)cc1)C(=O)O (H-Asn-Tyr-OH)
37 | 1.3 | N=C(N)NCCC[C@H](NC(=O)CN)C(=O)N1CCC[C@H]1C(=O)O (H-Gly-Arg-Pro-OH)
38 | 1.08 | NC(=O)CC[C@H](NC(=O)[C@@H](N)Cc1ccccc1)C(=O)N1CCC[C@H]1C(=O)O (H-Phe-Gln-Pro-OH)
39 | 1.08 | N[C@@H](Cc1ccccc1)C(=O)N[C@@H](CCC(=O)O)C(=O)N1CCC[C@H]1C(=O)O (H-Phe-Glu-Pro-OH)
40 | 0.78 | H-LHLPAP-OH
41 | 0.96 | CC(C)[C@H](N)C(=O)N[C@@H](Cc1ccccc1)C(=O)O (H-Val-Phe-OH)
42 | 0.65 | H-VHLAP-OH
43 | 0.78 | H-FFVAP-OH
44 | 1.71 | N=C(N)NCCC[C@H](N)C(=O)N[C@@H](Cc1ccc(O)cc1)C(=O)O (H-Arg-Tyr-OH)
45 | 1.24 | CC(C)C[C@H](N)C(=O)N[C@@H](Cc1c[nH]c2ccccc12)C(=O)O
46 | 0.6 | CC(C)C[C@H](N)C(=O)N[C@@H](CCCCN)C(=O)N1CCC[C@H]1C(=O)O (H-Leu-Lys-Pro-OH)
47 | 2.38 | CC(C)C[C@H](NC(=O)[C@H](C)N)C(=O)N1CCC[C@H]1C(=O)O (H-Ala-Leu-Pro-OH)
48 | 0.84 | CC[C@H](C)[C@H](N)C(=O)N[C@@H](CCCCN)C(=O)N1CCC[C@H]1C(=O)O (H-Ile-Lys-Pro-OH)
49 | 2.85 | NCCCC[C@H](NC(=O)[C@@H]1CCCN1)C(=O)N[C@@H](Cc1cnc[nH]1)C(=O)N1CCC[C@H]1C(=O)O (H-PKHP-OH)
50 | 1.76 | CC(C)C[C@H](N)C(=O)N[C@@H](CC(N)=O)C(=O)N1CCC[C@H]1C(=O)O (H-Leu-Asn-Pro-OH)

Row | logIC50 | Molecule
51 | 1.67 | NC(=O)C[C@H](N)C(=O)N[C@@H](Cc1ccccc1)C(=O)O (H-Asn-Phe-OH)
52 | 1.26 | H-VHLPP-OH
53 | 1.82 | CSCC[C@H](N)C(=O)N[C@@H](CC(N)=O)C(=O)N1CCC[C@H]1C(=O)O (H-Met-Asn-Pro-OH)
54 | 0.54 | CC(C)C[C@H](N)C(=O)N[C@@H](C)C(=O)N1CCC[C@H]1C(=O)O (H-Leu-Ala-Pro-OH)
55 | 1.2 | NC(N)=NCCC[C@H](N)C(=O)N[C@@H](Cc1c[nH]c2ccccc12)C(=O)O (H-Arg-Trp-OH)
56 | 2.56 | N[C@@H](CC(=O)O)C(=O)N[C@@H](Cc1ccccc1)C(=O)O (H-Asp-Phe-OH)
57 | 2.32 | NCC(=O)N[C@@H](Cc1ccc(O)cc1)C(=O)O (H-Gly-Tyr-OH)
58 | 0.36 | H-LHLPYP-OH
59 | 1.87 | H-SKVPP-OH
60 | 1.51 | CC(C)C[C@H](N)C(=O)N[C@@H](Cc1ccc(O)cc1)C(=O)O
61 | 0.59 | C[C@H](NC(=O)[C@H](Cc1c[nH]c2ccccc12)NC(=O)CN)C(=O)N1CCC[C@H]1C(=O)O (H-GWAP-OH)
62 | 1.28 | C[C@H](N)C(=O)N[C@@H](Cc1ccc(O)cc1)C(=O)O (H-Ala-Tyr-OH)
63 | 1.95 | C[C@@H](O)[C@H](N)C(=O)N[C@@H](Cc1ccccc1)C(=O)O (H-Thr-Phe-OH)
64 | 0.23 | CC(C)C[C@H](N)C(=O)N[C@@H](CO)C(=O)N1CCC[C@H]1C(=O)O (H-Leu-Ser-Pro-OH)
65 | 2.44 | NCC(=O)N[C@@H](Cc1ccccc1)C(=O)O (H-Gly-Phe-OH)
66 | 2.45 | CC(C)[C@H](N)C(=O)N[C@H](C(=O)N1CCC[C@H]1C(=O)N1CCC[C@H]1C(=O)O)C(C)C (H-VVPP-OH)
67 | 1.4 | NCC(=O)N[C@@H](Cc1c[nH]c2ccccc12)C(=O)O (H-Gly-Trp-OH)
68 | 0.43 | CC[C@H](C)[C@H](N)C(=O)N[C@@H](C)C(=O)N1CCC[C@H]1C(=O)O (H-Ile-Ala-Pro-OH)
69 | 0.82 | CC(C)C[C@H](N)C(=O)N[C@@H](Cc1ccc(O)cc1)C(=O)N1CCC[C@H]1C(=O)O (H-Leu-Tyr-Pro-OH)
70 | 2.24 | H-VIEKYP-OH
71 | 1.46 | CSCC[C@H](NC(=O)[C@@H](N)C(C)C)C(=O)N1CCC[C@H]1C(=O)O (H-Val-Met-Pro-OH)
72 | 1.82 | N[C@@H](CO)C(=O)N[C@@H](Cc1ccc(O)cc1)C(=O)O (H-Ser-Tyr-OH)
73 | 1.34 | NCCCC[C@H](N)C(=O)N1CCC[C@H]1C(=O)O (H-Lys-Pro-OH)
74 | 1.79 | H-DYGLYP-OH
75 | 1.66 | H-RPQIPP-OH

Row | logIC50 | Molecule
76 | 1.2 | CC(C)[C@H](N)C(=O)N[C@@H](Cc1ccc(O)cc1)C(=O)O (H-Val-Tyr-OH)
77 | 2.11 | CC[C@H](C)[C@H](N)C(=O)N1CCC[C@H]1C(=O)O (H-Ile-Pro-OH)
78 | 2.77 | H-VRGPFP-OH
79 | 2.1 | CC(C)C[C@H](N)C(=O)N[C@H](C(=O)N1CCC[C@H]1C(=O)N1CCC[C@H]1C(=O)O)C(C)C (H-LVPP-OH)
80 | 2.51 | NCC(=O)N[C@@H](CCC(=O)O)C(=O)N1CCC[C@H]1C(=O)O (H-Gly-Glu-Pro-OH)
81 | 0.49 | CC(C)[C@H](NC(=O)[C@H](C)N)C(=O)NCC(=O)N1CCC[C@H]1C(=O)O (H-AVGP-OH)
82 | 2.56 | NCC(=O)N1CCC[C@H]1C(=O)O (H-Gly-Pro-OH)
83 | -0.57 | CC(C)C[C@H](N)C(=O)N[C@@H](CCCN=C(N)N)C(=O)N1CCC[C@H]1C(=O)O (H-Leu-Arg-Pro-OH)
84 | 0.34 | H-IAYKP-OH
85 | 2.04 | H-PVPQP-OH
86 | 1.42 | N[C@@H](Cc1cnc[nH]1)C(=O)N[C@@H](Cc1ccc(O)cc1)C(=O)O (H-His-Tyr-OH)
87 | 1 | CC(C)[C@H](N)C(=O)N[C@@H](CO)C(=O)N1CCC[C@H]1C(=O)O (H-Val-Ser-Pro-OH)
88 | 2.23 | H-VLIVP-OH
89 | 2.46 | CC(C)[C@H](N)C(=O)N[C@@H](Cc1ccc(O)cc1)C(=O)N1CCC[C@H]1C(=O)O (H-Val-Tyr-Pro-OH)
90 | 1.88 | C[C@H](N)C(=O)N[C@@H](Cc1ccccc1)C(=O)O
91 | 1 | CSCC[C@H](N)C(=O)N[C@@H](Cc1c[nH]c2ccccc12)C(=O)O (H-Met-Trp-OH)
92 | 0.34 | CC(C)[C@H](N)C(=O)N[C@@H](CCCNC(=N)N)C(=O)N1CCC[C@H]1C(=O)O (H-Val-Arg-Pro-OH)
93 | 1.4 | N[C@@H](Cc1ccccc1)C(=O)N[C@@H](Cc1ccc(O)cc1)C(=O)O (H-Phe-Tyr-OH)
94 | 0.28 | H-LHLPGP-OH
95 | 2.6 | H-TKVIP-OH
96 | 2.07 | H-PVVVPP-OH
97 | 2.86 | N[C@@H](Cc1ccc(O)cc1)C(=O)N1CCC[C@H]1C(=O)O (H-Tyr-Pro-OH)
98 | 2.93 | N[C@@H](CO)C(=O)N1CCC[C@H]1C(=O)N[C@@H](Cc1ccc(O)cc1)C(=O)N1CCC[C@H]1C(=O)O (H-SPYP-OH)

Row | Molecule | logIC50
99 | NCCCC[C@H](N)C(=O)N[C@@H](Cc1ccccc1)C(=O)O | 1.45
100 | N[C@@H](Cc1ccccc1)C(=O)N1CCC[C@H]1C(=O)O (H-Phe-Pro-OH) | 2.5
